Columns and labels:
[1] = system: mouse acute wound; test: Wound healing effect of extract and indirubin derivative mixtures in mouse acute wound (Test Example 6); type: in vivo; settings: mouse acute wound tissue, fluorescence staining
Method: Wound healing-promoting effect was investigated after treating an animal model with the indirubin derivative of Example 1 (0.5 mM), the indirubin derivative of Example 2 (0.5 mM) or the mixtures of Examples 12 and 13 (0.5 mM indirubin derivative mixed with 1 μg/mL Euodia sutchuenensis Dode extract).
The hair on the back of 7-week-old C3H mouse that entered the resting period was removed and a 1.5×1.5 cm^2 wound was made on the hair-removed region. A sample was applied to a positive control group, once daily for 12 days. After measuring wound size of the experimental animal on days 0 and 12, the wound tissue was fixed by immersing in 4% paraformaldehyde, embedded in paraffin and then sliced into 4 μm thickness. The sliced tissue was deparaffinized, rehydrated and then the degree of re-epithelialization was compared. Masson's trichrome staining and Picrosirius red staining were conducted for evaluation of the degree of collagen synthesis. For Masson's trichrome staining, a slide was immersed in Weigert's iron hematoxylin solution for 10 minutes and in Biebrich scarlet-acid fuchsin and aniline blue for 5 minutes each. […] The sliced skin tissue was fluorescence-stained using β-catenin, PCNA, keratin 14 and collagen I antibodies and was observed using a fluorescence microscope (FIG. 9a). […]

[2] = system: diabetic wound; test: Effect of treating diabetic wound (Test Example 9); type: in vivo; settings: diabetes-induced mouse; for healing of the wound site: 0.8×0.8 cm^2 wound, 20 μL once daily for 14 days, VPA 500 mM; for re-epithelialization (H&E): 14 days
Method: 3-week-old male C57BL/6N mice (Koatech, South Korea) were used. After accustoming the mice for a week to normal feed, high-fat diet (Product Data—D12492; 60% kcal, hereinafter referred to as HFD) was given for 4 weeks. Then, a diabetes-induced animal model was prepared by intraperitoneally injecting 40 mg/kg streptozocin (Sigma) once daily for a week. The mice were kept in cages maintained at constant temperature (22±2° C.) and relative humidity (40-60%) with light/dark cycles of 12/12 hours.
6 mice of the normal control group and 6 mice per test group of the diabetes-induced animal model of Test Example 7 were prepared. The hair on the back was removed and a 0.8×0.8 cm^2 wound was made on the hair-removed region.
For the normal control group, only 20 μL of an emulsion solution (Kollipore®EL:Tween 80:PEG 400 at a mixing weight ratio of 80:6:14) was applied to the wound site once daily for 14 days. For the negative control group, only 20 μL of the emulsion solution (Kollipore®EL:Tween 80:PEG 400 at a mixing weight ratio of 80:6:14) was applied to the wound site once daily for 14 days. For the positive control group (VPA), 20 μL of a composition prepared by mixing 500 mM VPA in an emulsion solution was applied to the wound site once daily for 14 days.
For the first test group, 20 μL of A3334 (Example 1) was applied to the wound site once daily for 14 days. For the second test group, 20 μL of A3051 (Example 2) was applied to the wound site once daily for 14 days. Then, the wound site of each group was photographed and the wound area was measured (FIG. 14). On day 14, after euthanizing the mouse with carbon dioxide, the wound site tissue was harvested and the histological structure was observed.
Specifically, the wound site tissue obtained from the normal control group, the negative control group, the positive control group or the first or second test group was fixed by immersing in 4% paraformaldehyde, embedded in paraffin and then sliced into 4 μm thickness. The sliced tissue was deparaffinized, rehydrated and then stained with hematoxylin (purple) and eosin (pink) for observation of histological structure.
Specifically, the wound site tissue obtained from the normal control group, the negative control group, the positive control group or the first or second test group was fixed by immersing in 4% paraformaldehyde, embedded in paraffin and then sliced into 4 μm thickness. The sliced tissue was deparaffinized, rehydrated and then stained with Van Gieson's stain and Masson's trichrome for observation of histological structure. For the Van Gieson's staining, the sliced tissue was immersed in Weigert's solution for 10 minutes and in picrofuchsin solution for 2 minutes. For the Masson's trichrome staining, the sliced tissue was immersed in Weigert's iron hematoxylin solution for 10 minutes and in Biebrich scarlet-acid fuchsin and Aniline blue for 5 minutes each.
Specifically, the wound site tissue obtained from the normal control group, the negative control group, the positive control group or the first and second test groups was fixed by immersing in 4% paraformaldehyde and angiogenesis was observed.

[3] = system: HaCaT cells; test: Cell migration of keratinocytes, Euodia sutchuenensis Dode extract and indirubin derivative mixtures (Test Example 5); type: cell-based, human; settings: 18 hours
Method: Cell migration was compared after treating cells with the indirubin derivative of Example 1 (0.1 μM, 1 μM), the indirubin derivative of Example 2 (0.1 μM, 1 μM) or the mixtures of Examples 12 and 13 (0.1 μM and 1 μM indirubin derivative mixed with 1 μg/mL Euodia sutchuenensis Dode extract, respectively).
A non-treated control group (con), a group treated with the Euodia sutchuenensis Dode extract of Example 8 (1 μg/mL) alone (Euodia sutchuenensis Dode 1 μg/mL) and a positive control group treated with 100 μM VPA (valproic acid) were prepared.
Experiment was conducted as follows. First, HaCaT cells were cultured in a 12-well plate for 24 hours. The HaCaT cells are human keratinocytes which are known to play an important role in wound healing. DMEM containing 10% FBS was used. After the culturing for 24 hours was completed, the medium was replaced with DMEM containing 5% FBS and a scratch was made at the center of the cells using a 1000p (blue) tip. Then, after treating the scratched area with a sample, cell migration and motility was observed 18 hours later.
As the sample, the indirubin derivative of Example 1 (0.1 μM, 1 μM), the indirubin derivative of Example 2 (0.1 μM, 1 μM) or the mixtures of Examples 12 and 13 (0.1 μM and 1 μM indirubin derivative mixed with 1 μg/mL Euodia sutchuenensis Dode extract, respectively) was used. […]

[4] = system: mouse acute wound; test: Wound healing effect of mixtures in mouse acute wound (Test Example 4); type: in vivo; settings: C3H mouse; Example 2 0.5 mM, Example 5 2.5 mM, 5 mM; 20 μL once daily for 12 days
[5] = system: mouse acute wound; test: Wound healing and collagen synthesis in mouse acute wound (Test Example 2); type: in vivo
Method: The wound healing-promoting effect of the indirubin derivatives prepared in Examples 1 and 2, the indirubin derivative of Comparative Example 1 (10) and EGF, known as an existing wound healing agent, as a positive control group was investigated through animal experiments.
The hair on the back of 7-week-old C3H mouse that entered the resting period was removed and a 1.5×1.5 cm^2 wound was made on the hair-removed region. 20 μL of a vehicle (10% DMSO, 45% ethanol, 18% propylene glycol, 27% water) and the indirubin derivative of Comparative Example 1 (10) were applied to a control group and a comparison group, respectively, once daily for 12 days. For the positive control group, 100 μM EGF was applied once daily for 12 days. For a first test group, 20 μL of the indirubin derivative of Example 2 (A3051) was applied once daily for 12 days. For a second test group, 20 μL of the indirubin derivative of Example 1 (A3334) was applied once daily for 12 days.
The tissue of each experimental mouse was fixed by immersing in 4% paraformaldehyde, embedded in paraffin and then sliced into 4 μm thickness. The sliced tissue was deparaffinized, rehydrated and then stained with Masson's trichrome and Picrosirius red for evaluation of the degree of collagen synthesis. For Masson's trichrome staining, a slide was placed in Weigert's iron hematoxylin solution for 10 minutes and in Biebrich scarlet-acid fuchsin and aniline blue for 5 minutes each. For Picrosirius red staining, a slide was placed in Weigert's solution for 8 minutes and in Picrosirius red for 1 hour.

[6] = system: HaCaT cells; test: Cell motility of keratinocytes, indirubin derivative and low-molecular-weight compound mixtures (Test Example 3); type: cell-based, human; settings: HaCaT scratch; 18 hours later; methyl vanillate 5 μM, hesperidin 1 μM, quercitrin 1 μM
Method: For analysis of wound healing effect, cell motility was compared for treatment with the indirubin derivative prepared in Example 2, the methyl vanillate of Example 5, the hesperidin of Example 6, the quercitrin of Example 7 and the mixtures prepared in Examples 9-11.
HaCaT cells, which are human keratinocytes playing an important role in wound healing, were cultured in a 12-well plate for 24 hours using DMEM containing 10% FBS. Then, after replacing the medium with DMEM containing 5% FBS, a scratch was made at the center of the cells using a 1000p (blue) tip. Then, after treating the scratched area with each of the indirubin derivative prepared in Example 2, the methyl vanillate of Example 5, the hesperidin of Example 6, the quercitrin of Example 7 and the mixtures prepared in Examples 9-11 at a concentration of 1 μM or 5 μM, cell motility was observed 18 hours later.
Specifically, the concentration of the indirubin derivative prepared in Example 2, the hesperidin of Example 6 and the quercitrin of Example 7 was 1 μM, the concentration of the methyl vanillate of Example 5 was 5 μM, and the mixtures prepared in Examples 9-11 were prepared by mixing 1 μM indirubin derivative with 5 μM methyl vanillate, 1 μM hesperidin or 1 μM quercitrin.
The control group (control) means non-treated keratinocytes. […]

[7] = C3H mouse acute wound, once daily for 12 days, vs EGF

SMILES: CO/N=C1/C(=C2/C(=O)Nc3cc(Cl)c(Cl)cc32)Nc2ccccc21 [Example 2, 5,6-dichloroindirubin-3′-methoxime]
- expression of β-catenin, PCNA, keratin 14 and collagen I [1]: slightly lower as compared to the positive control group
- angiogenesis around the wound site [2]: increased angiogenesis
- healing of the wound site [2]: healing of the wound site was promoted similarly to the normal control group
- re-epithelialization (H&E) [2]: re-epithelialization occurred quickly
- collagen synthesis (Van Gieson's stain, Masson's trichrome) ([2]; vs normal, negative and positive control group (VPA)): increased collagen synthesis
- recovery of cell migration rate (%) as compared to the control group ([3]; first value of 'respectively' (0.1 μM indirubin derivative; mixture with 1 μg/mL extract)): 50%
- recovery of cell migration rate (%) as compared to the control group ([3]; second value of 'respectively' (1 μM indirubin derivative; mixture with 1 μg/mL extract)): 114%
- acute wound healing as compared to the control group or the positive control group [4]: healed quickly
- quantity of collagen (Masson's trichrome, Picrosirius red, van Gieson's stain) ([5]; C3H mouse acute wound tissue, vs control group, Comparative Example 1, positive control group): remarkably increases the quantity of collagen
- re-epithelialization of acute wound [5, 7]: re-epithelialized comparably to or faster than the positive control group EGF
- scar-reducing effect, repair of the epidermal layer of skin [5, 7]: very effective in reducing scarring
- wound repair effect as compared to the positive control group EGF ([5]; C3H mouse, 1.5×1.5 cm^2 wound, 20 μL once daily for 12 days, EGF 100 μM): 2-6 times

SMILES: COC(=O)c1ccc(O)c(OC)c1 [Example 5, Methyl vanillate, reference compound]
- cell motility compared with the control group [6]: no difference in cell motility
- acute wound healing as compared to the control group or the positive control group [4]: healed quickly

SMILES: COc1ccc([C@@H]2CC(=O)c3c(O)cc(O[C@@H]4O[C@H](CO[C@@H]5O[C@@H](C)[C@H](O)[C@@H](O)[C@H]5O)[C@@H](O)[C@H](O)[C@H]4O)cc3O2)cc1O [Example 6, Hesperidin]
- cell motility compared with the control group [6]: no difference in cell motility

SMILES: CCCC(CCC)C(=O)O [VPA, valproic acid, reference compound]
- healing of the wound site [2]: wound healing was delayed similarly to the negative control group
- re-epithelialization (H&E) [2]: re-epithelialization did not occur even after 14 days
